From US10927398B2, “Compositions for CYP450 phenotyping using saliva samples” (Concordia University, Inc., priority 2015, dated 2021)
Several values for one entry are separate records, joined by “and”; a condition that tells them apart may be missing. Equal entries are not always repeated. Where two headings read alike, the source gives them in different places.

How the values were obtained:
CYP2C19 [1] = system: CYP2C19
CYP3A4 [2] = target: T1, CYP3A4 (Homo sapiens, UniProt P08684); details: parent and primary metabolite, CYP3A4 probe search
plasma protein = details: Table of Exemplary Drugs, cited from earlier work
[3] = cited from earlier work
CYP450 enzymes = details: cited from earlier work
CYP1A2 = target: T2, CYP1A2 (Homo sapiens, UniProt P05177); assay: Saliva phenotyping with caffeine probe (caffeine/paraxanthine metabolic ratio); format: in vivo
T2 sequence (P05177 1-516): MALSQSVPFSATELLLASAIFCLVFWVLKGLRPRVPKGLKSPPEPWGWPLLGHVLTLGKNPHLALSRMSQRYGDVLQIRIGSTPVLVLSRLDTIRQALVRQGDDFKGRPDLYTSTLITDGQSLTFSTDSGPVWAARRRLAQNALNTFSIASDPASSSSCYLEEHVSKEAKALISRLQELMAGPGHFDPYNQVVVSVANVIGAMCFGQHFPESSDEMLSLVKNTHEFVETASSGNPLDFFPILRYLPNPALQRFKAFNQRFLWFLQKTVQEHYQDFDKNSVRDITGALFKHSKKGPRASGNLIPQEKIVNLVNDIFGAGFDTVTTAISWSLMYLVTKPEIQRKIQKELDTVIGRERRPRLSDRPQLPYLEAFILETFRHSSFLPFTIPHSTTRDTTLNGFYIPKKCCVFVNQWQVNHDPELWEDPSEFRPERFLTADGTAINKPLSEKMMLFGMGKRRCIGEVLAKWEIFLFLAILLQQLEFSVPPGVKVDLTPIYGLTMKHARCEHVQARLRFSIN

[4] = cited from earlier work; remark: listed apart in the source
CYP2D6 [5] = details: Hou et al., saliva, cited from earlier work
CYP2D6 [6] = assay: Saliva phenotyping with dextromethorphan probe (dextromethorphan/dextrorphan metabolic ratio); format: in vivo, human
Description: 3. […] Record the time in your lab notebook.
1. […] Repeat with the other three saliva samples.
4. […] Repeat with the other three saliva samples.

CYP3A4 [7] = target: T1, CYP3A4; parameters: endogenous in cells; host or cells: healthy volunteers, in vivo; saliva sampled; details: eplerenone; cited from earlier work
CYP2C19 [8] = details: saliva, repeat doses of Formulation #4, per subject and tablet #
[9] = without an enteric coating or base protection; cited from earlier work
[10] = Table of Exemplary Drugs, CYP3A4
[11] = saliva, healthy adults, dextromethorphan 30 mg
[12] = Table of Exemplary Drugs, CYP2C19
[13] = saliva, healthy adults, omeprazole 20 mg
[14] = Table of Exemplary Drugs, CYP1A2
[15] = Table of Exemplary Drugs, CYP2C9
[16] = Table of Exemplary Drugs, CYP2D6

T1 sequence (P08684 whole entry): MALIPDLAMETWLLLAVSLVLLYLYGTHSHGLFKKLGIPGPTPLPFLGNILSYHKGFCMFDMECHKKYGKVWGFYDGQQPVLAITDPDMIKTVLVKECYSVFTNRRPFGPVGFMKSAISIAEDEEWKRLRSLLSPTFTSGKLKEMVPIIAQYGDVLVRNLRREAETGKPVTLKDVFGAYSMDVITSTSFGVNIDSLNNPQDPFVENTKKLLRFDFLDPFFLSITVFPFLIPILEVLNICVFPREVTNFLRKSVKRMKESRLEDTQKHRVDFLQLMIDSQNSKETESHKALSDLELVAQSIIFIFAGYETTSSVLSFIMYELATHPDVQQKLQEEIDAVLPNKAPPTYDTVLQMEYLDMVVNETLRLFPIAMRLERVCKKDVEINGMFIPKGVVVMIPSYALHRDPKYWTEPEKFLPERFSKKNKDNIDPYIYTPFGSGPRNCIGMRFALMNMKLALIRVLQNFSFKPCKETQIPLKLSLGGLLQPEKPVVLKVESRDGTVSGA

COc1ccc2nc([S+]([O-])Cc3ncc(CO)c(OC)c3C)[nH]c2c1 (stereo not shown) [5-hydroxy omeprazole]
concentrations in saliva (CYP2C19 [1]; in vivo): found in low concentrations in saliva of some individuals

COC(=O)[C@H]1[C@H]2[C@@H]3CC[C@@]4(CCC(=O)O4)[C@@]3(C)C[C@H]3O[C@@]23[C@@]2(C)CCC(=O)C=C2[C@@H]1O [6Beta-Hydroxy Eplerenone]
concentrations in saliva (CYP3A4 [2]): sufficiently high concentrations in saliva

CN(C)CCc1c[nH]c2ccc(CS(=O)(=O)N3CCCC3)cc12 [Almortriptan (Axert), Almortriptan]
PLASMA PROTEIN BINDING (plasma protein; CYP3A4): 35% | ORAL BIOAVAILABILITY [3, 10]: 70% | METABOLISM (CYP450 enzymes; CYP isoforms listed, Table of Exemplary Drugs, CYP3A4): 2D6, MAO

Cn1c(=O)c2c(ncn2C)n(C)c1=O [Caffeine]
PLASMA PROTEIN BINDING (plasma protein; CYP1A2): 17-36% ^ | complaints of individuals (CYP1A2; caffeine doses of 200 mg, some individuals): nervousness and anxiety | poor metabolizers, share of subjects (CYP1A2 phenotype) (CYP1A2; saliva, healthy primarily Caucasian adults, caffeine 200 mg): 7.8%

COc1ccc2c(c1)[C@]13CCCC[C@@H]1[C@H](C2)N(C)CC3 [Dextromethophan]
ORAL BIOAVAILABILITY ([3]; in vivo, po): 11% | HALF-LIFE ([4]; in vivo): 1.4 to 3.9 h | antimode (MR) marking poor metabolizers (CYP2D6 [5]; healthy Chinese subjects, 3 hours after 50 mg immediate release): 14 | antimode (MR) (CYP2D6 [5]; patients with renal disease, 3 hours after 30 mg immediate release): 33 | antimode (MR) marking poor metabolizers (CYP2D6 [6]; saliva, 6 hours after a 30 mg delayed release dose): 27.5 | CYP2D6 metabolic phenotype: Extensive (CYP2D6 [6]; [11]): 83.9% | CYP2D6 metabolic phenotype: Intermediate (CYP2D6 [6]; [11]): 9.2% | CYP2D6 metabolic phenotype: Poor (CYP2D6 [6]; [11]): 4.6% | CYP2D6 metabolic phenotype: Ultra-rapid (CYP2D6 [6]; [11]): 2.3%

CN1CC[C@@]23CCCC[C@@H]2[C@@H]1Cc1ccc(O)cc13 [Dextrorphan]
concentrations in saliva (CYP2D6 [6]; individuals dosed with over the counter formulations): sometimes found in very low concentrations in saliva

COC(=O)[C@@H]1CC2=CC(=O)CC[C@]2(C)[C@@]23O[C@@H]2C[C@@]2(C)[C@@H](CC[C@@]24CCC(=O)O4)[C@H]13 [Eplerenone (Inspra), Eplerenone]
PLASMA PROTEIN BINDING (plasma protein; CYP3A4): 50% | ORAL BIOAVAILABILITY [3, 10]: 69% | HALF-LIFE [4, 10]: 3 to 6 h | Tmax (CYP3A4 [7]): approximately 1.5 hours

COC(=O)C1=C(C)NC(C)=C(C(=O)OCCN(C)Cc2ccccc2)C1c1cccc([N+](=O)[O-])c1 (stereo not shown) [Nicardipine (Cardene), Nicardipine]
ORAL BIOAVAILABILITY [3, 10]: 35% | HALF-LIFE [4, 10]: 8.6 to 14.4 h | METABOLISM (CYP450 enzymes): 3A4, 2C8, 2D6

COc1ccc2[nH]c([S+]([O-])Cc3ncc(C)c(OC)c3C)nc2c1 (stereo not shown) [Omeprazole]
Log10 Omeprazole/5-Hydroxy Omeprazole Metabolic Ratio (CYP2C19 [8]; time point 0.5 h): 0.9 and 2.3 (2×) and 1.4 and 2.4 and 3.5 and 3.1 | Log10 Omeprazole/5-Hydroxy Omeprazole Metabolic Ratio (CYP2C19 [8]; time point 1 h): 1.2 (2×) and 0.7 (2×) and 1.5 and 1.1 and 1.3 and 1.9 and 1.4 | Log10 Omeprazole/5-Hydroxy Omeprazole Metabolic Ratio (CYP2C19 [8]; time point 2 h): 0.6 (2×) and 0.5 and 1.3 (2×) and 0.9 and 0.8 and 1.1 and 1.0 and 1.2 and 0.4 and 2.0 | Log10 Omeprazole/5-Hydroxy Omeprazole Metabolic Ratio (CYP2C19 [8]; time point 3 h): 0.4 (2×) and 0.7 and 0.9 (2×) and 0.8 and 0.6 (2×) and 1.3 (2×) and 0.05 and 0.2 and 1.6 and 1.0 | Log10 Omeprazole/5-Hydroxy Omeprazole Metabolic Ratio (CYP2C19 [8]; time point 4 h): 0.4 (2×) and 1.2 and 1.0 and 0.6 (3×) and 0.7 and 0.9 and 0.03 and 1.3 | PLASMA PROTEIN BINDING (plasma protein; CYP2C19): 95-96% ^ | ORAL BIOAVAILABILITY [3, 12]: 30-40% | concentrations in saliva (CYP2C19 [1]; over the counter formulations, some individuals): found in low concentrations in saliva of some individuals | CYP2C19 metabolic phenotype: Extensive (CYP2C19 [1]; [13]): 49.4% | CYP2C19 metabolic phenotype: Intermediate (CYP2C19 [1]; [13]): 31.3% | CYP2C19 metabolic phenotype: Poor (CYP2C19 [1]; [13]): 7.2% | CYP2C19 metabolic phenotype: Rapid (CYP2C19 [1]; [13]): 9.6% | CYP2C19 metabolic phenotype: Ultra-rapid (CYP2C19 [1]; [13]): 2.4% | HALF-LIFE [4, 12]: 0.5 to 1 h | stability in acidic gastric fluids [9]: rapidly degrades

COCCCOc1ccnc(C[S+]([O-])c2nc3ccccc3[nH]2)c1C (stereo not shown) [Rabeprazole]
ORAL BIOAVAILABILITY [3, 12]: 52% | HALF-LIFE [4, 12]: 1 to 2 h | METABOLISM (CYP450 enzymes; CYP isoforms listed, Table of Exemplary Drugs, CYP2C19): 3A

Cn1c(=O)c2[nH]cnc2n(C)c1=O [Theophylline]
ORAL BIOAVAILABILITY [3, 14]: ~100% | HALF-LIFE [4, 14]: 1.5 to 9.8 h | METABOLISM (CYP450 enzymes; CYP isoforms listed, Table of Exemplary Drugs, CYP1A2): 2E1

Cc1ccsc1C(=CCCN1CCC[C@@H](C(=O)O)C1)c1sccc1C [Tiagabine (Gabitril), Tiagabine]
PLASMA PROTEIN BINDING (plasma protein; CYP3A4): 96% | ORAL BIOAVAILABILITY [3, 10]: 90% | HALF-LIFE [4, 10]: 7 to 9 h

CCS(=O)(=O)CCn1c([N+](=O)[O-])cnc1C [Tinidazole (Tindamax), Tinidazole]
PLASMA PROTEIN BINDING (plasma protein; CYP3A4): 12% | ORAL BIOAVAILABILITY [3, 10]: 100% | HALF-LIFE [4, 10]: 11.1 to 14.7 h

CCC[C@@]1(CCc2ccccc2)CC(O)=C([C@H](CC)c2cccc(NS(=O)(=O)c3ccc(C(F)(F)F)cn3)c2)C(=O)O1 [Tipranavir (Aptivus), Tipranavir]
PLASMA PROTEIN BINDING (plasma protein; CYP3A4): 99.9%^ | ORAL BIOAVAILABILITY [3, 10]: 30?% | HALF-LIFE [4, 10]: 5.5 to 6 h

Cc1cccc(Nc2ccncc2S(=O)(=O)NC(=O)NC(C)C)c1 [Torasemide]
PLASMA PROTEIN BINDING (plasma protein; CYP2C9): >99% | ORAL BIOAVAILABILITY [3, 15]: 80% | HALF-LIFE [4, 15]: 2.2 to 3.8 h

COc1cccc(C2(O)CCCCC2CN(C)C)c1 (stereo not shown) [Tramadol]
PLASMA PROTEIN BINDING (plasma protein; CYP2D6): 20% | ORAL BIOAVAILABILITY [3, 16]: 75% | HALF-LIFE ([4]; in vivo): 5.6 to 5.7 h

CN1[C@@H]2CC[C@H]1C[C@@H](OC(=O)c1c[nH]c3ccccc13)C2 [Tropisetron]
PLASMA PROTEIN BINDING (plasma protein; CYP2D6): 71% | ORAL BIOAVAILABILITY [3, 16]: 60-100% | HALF-LIFE [4, 16]: 5.6 to 8.6 h

CCCc1nc(C)c2c(=O)[nH]c(-c3cc(S(=O)(=O)N4CCN(CC)CC4)ccc3OCC)nn12 [Vardenafil (Levitra), Vardenafil]
PLASMA PROTEIN BINDING (plasma protein; CYP3A4): 95% | ORAL BIOAVAILABILITY [3, 10]: 15-44% | HALF-LIFE [4, 10]: 4 to 5 h

CN1CCN(C(=O)OC2c3nccnc3C(=O)N2c2ccc(Cl)cn2)CC1 (stereo not shown) [Zopiclone (Imovane), Zopiclone]
PLASMA PROTEIN BINDING (plasma protein; CYP3A4): 45% | ORAL BIOAVAILABILITY [3, 10]: 80% | HALF-LIFE [4, 10]: 3.5 to 6.5 h

OCCN1CCN(CC/C=C2/c3ccccc3Sc3ccc(Cl)cc32)CC1 [Zuclopenthixol]
PLASMA PROTEIN BINDING (plasma protein; CYP2D6): 98% | ORAL BIOAVAILABILITY [3, 16]: 49% | HALF-LIFE [4, 16]: 20 h

Polyunsaturated FAs
PLASMA PROTEIN BINDING (plasma protein; CYP2C9): >99% | ORAL BIOAVAILABILITY [3, 15]: 64-73% | HALF-LIFE [4, 15]: 2.7 to 5.5 h
